Test [1] deals with ER-positive human breast cancer cells MCF7. The test is described as follows: MTT antiproliferative assay, MCF7 cells. In kind it is cell-based. The settings on record: for potency relative to parent natural tocotrienol / antiproliferative activity (in words): MCF7; for potency relative to parent natural tocotrienol: 4 and 10 versus Compound 1, 8 versus Compound 2. The procedure: (§1) For each of the assays performed the compounds were dissolved in aqueous culture media by binding the compounds with bovine serum albumin (BSA).
(§2) An amount of each compound appropriate for the desired final compound concentration was placed in a 1.5 mL screw top glass vial and dissolved in 100 μL of 100% ethanol. Once dissolved, this ethanol/compound solution was added to a small volume of sterile 10% BSA in water and incubated overnight at 37° C. […] Ethanol was added to all treatment media such that the final ethanol concentration was the same in all treatment groups within a given experiment and was always less than 0.1%. Although the examples provided have been described in conjunction with specified amounts of ethanol and other compounds it should be understood that the invention is applicable to embodiments not having those limited concentration.
(§3) The cell growth of MCF7 (Example 24) and MDA-MB-231 (Example 25) cell lines was measured using the MTT assay procedures described above and an MTT assay kit (TACS™, Trevogen®, Inc., Gaithersburg, Md.). After passing the cells for 3-4 times, growing cells were incubated in a 96-well plate at a density of 8×10^3 cells per well, and allowed to attach for 24 hours. Complete growth medium was then replaced with 100 μL of RPMI serum free medium (GIBCO-Invitrogen, NY) containing various doses (20, 10, 5, 2 μM) of the tested compound and the culture continued at 37° C. under 5% CO2. After 96 hours, the incubated cells were treated with MTT solution (10 μL/well) at 37° C. for 4 hours. The color reaction was stopped by the addition of solubilization/stop solution (100 μL/well). The cells continued to be incubated at 37° C. to completely dissolve the formazan product. Absorbance of the samples was determined at 570 nm with an ELISA plate reader (BioTek, VT). Absorbance readings were converted to estimated cell numbers based on a standard curve prepared by plating various concentration of cells, as determined by hemocytometer, and measuring the absorbance of those cells at the start of each experiment. The IC50 value of each compound was calculated using nonlinear regression (curve fit) of log concentration versus the number of cells/well implemented using GraphPad Prism 5.0 program. The procedure was identical for both human breast cancer cell lines MCF7 and MDA-MB-231.

For test [2], the system named is ER-negative human breast cancer cells MDA-MB-231. The test is described as follows: MTT antiproliferative assay, MDA-MB-231 cells. The format is cell-based. As to conditions: for antiproliferative activity (in words): MDA-MB-231. Here is the method: as §1, §2, §3
(In general: Tetrazolium dyes change colour on reduction, which living cells bring about.)

Test [3] concerns highly metastatic breast cancer cell line MDA-MB-231. Put plainly: BME Cell Invasion Assay (Boyden chamber, calcein-AM). In kind it is cell-based, human. As to conditions: for anti-invasive activity (in words): MDA-MB-231, 5 μM. The procedure: Anti-Invasion Assays were performed to measure the anti-invasive properties of Compounds 1-21 using a 96 well basement membrane extract “BME” Cell Invasion Assay (Cultrex®, Trevogen, Catalog# 3455-096-K) with the highly metastatic breast cancer cell line MDA-MB-231. This assay employs a simplified Boyden Chamber design with a polyethylene terephthalate membrane (8 μm). Detection of cell invasion is quantified using calcein-AM. Cells internalize calcein-AM and intracellular esterases cleave the acetomethylester moiety to generate free calcein. Free calcein fluoresces brightly, and this fluorescence may be used to quantify the number of cells that have invaded across BME. (See Tamilarasan and Borghesani, referenced above)
About […] of basement membrane extract (BME, 1×) coat was added per well. After overnight incubation at 37° C. in a 5% CO2 incubator, 50,000/50 μL of MDA-MB-231 cells in serum free RPMI medium were added to the top chamber of each well, which contained the tested compound at a treatment concentration of 5 μM. About 150 μL of RPMI medium was added to the lower chamber, which contained 10% fetal bovine serum, penicillin/streptomycin, and fibronectin (1 μL/mL) and N-formyl-met-leu-phe (10 nM) as chemoattractants. Cells were allowed to migrate to the lower chamber at 37° C. in a CO2 incubator. After 24 h, the top and bottom chambers were aspirated and washed with a washing buffer solution. About 100 μL of cell dissociation solution/Calcein-AM solution was added to the bottom chamber and incubated for 1 hour at 37° C. in a CO2 incubator. The cells internalized calcein-AM, and the intracellular esterases cleaved the acetomethylester (AM) moiety to generate free calcein. Fluorescence of the samples was determined at 485 nm excitation; 520 nm emissions were measured using a plate reader (BioTek, VT). The numbers of cells that invaded through the BME coat were calculated using a standard curve.
Differences among the various treatment groups were determined by analysis of variance (ANOVA) followed by Dunnett's t-test. Differences were considered to be statistically significant at a value of <0.05, as compared to vehicle treated controls.

Setting [4] is: 96 hours, serum free medium, calculated by nonlinear regression, read-out: MCF7 IC50.
Where [5] appears, read: 96 hours, serum free medium, calculated by nonlinear regression, read-out: MDA-MB-231 IC50.
The mark [6] stands for this setting: Homo sapiens, MCF7, 96 h, read-out: MCF7 IC50 μM.
The mark [7] stands for this setting: Homo sapiens, MDA-MB-231, 96 h, read-out: MDA-MB-231 IC50 μM.

Like-named read-outs stand apart in the source and are kept apart here.

For orientation: IC50 means the concentration at which inhibition is half-maximal. Take `CC(C)=CCC/C(C)=C/CC/C(C)=C/CC[C@]1(C)CCc2c(C)c(O)c(C)c(C)c2O1` [Compound 1, α-tocotrienol, reference compound]: the IC50 was more than 20 µM in test [1] (setting [4]) and more than 10 µM in test [2] (setting [5]).

Regarding `CC(C)=CCC/C(C)=C/CC/C(C)=C/CC[C@]1(C)CCc2cc(O)c(C)c(C)c2O1` [Compound 2, γ-tocotrienol, reference compound], the IC50 is 11.4 µM in test [1] (setting [4]) and more than 10 µM in test [2] (setting [5]).

Regarding `CC(C)=CCC/C(C)=C/CC/C(C)=C/CC[C@]1(C)CCc2cc(O)cc(C)c2O1` [Compound 3, δ-tocotrienol, reference compound], the IC50 in test [1] (setting [4]) is 15.5 µM; in test [2] (setting [5]) it was more than 10 µM.

Regarding `CC(C)=CCC/C(C)=C/CC/C(C)=C/CCC1(C)CCc2c(C)c(OC(=O)NS(=O)(=O)c3ccccc3)c(C)c(C)c2O1` (stereo not shown) [Compound 4, 2,5,7,8-tetramethyl-2-((3E,7E)-4,8,12-trimethyltrideca-3,7,11-trienyl)chroman-6-ylphenylsulfonylcarbamate], the IC50 is 4.5 µM in test [1] (setting [4]) and more than 10 µM in test [2] (setting [5]). For the same compound, in test [1], the “potency relative to parent natural tocotrienol” value is given as 8 fold.

As for `CC(C)=CCC/C(C)=C/CC/C(C)=C/CCC1(C)CCc2cc(OC(=O)NS(=O)(=O)c3ccccc3)c(C)c(C)c2O1` (stereo not shown) [Compound 5, 2,7,8-trimethyl-2-((3E,7E)-4,8,12-trimethyltrideca-3,7,11-trienyl)chroman-6-ylphenylsulfonylcarbamate], the IC50 in test [1] (setting [4]) and in test [2] (setting [5]) was more than 10 µM throughout.

Regarding `CC(C)=CCC/C(C)=C/CC/C(C)=C/CCC1(C)CCc2cc(OC(=O)NS(=O)(=O)c3ccccc3)cc(C)c2O1` (stereo not shown) [Compound 6, 2,8-dimethyl-2-((3E,7E)-4,8,12-trimethyltrideca-3,7,11-trienyl)chroman-6-ylphenylsulfonylcarbamate], the values for the IC50 in test [1] (setting [4]) and in test [2] (setting [5]) were 6.1 µM and more than 10 µM, respectively. For the same compound, the “antiproliferative activity (in words)” value in test [1] is given as “activities greater than the natural tocotrienols from which they were derived”.

For the compound `CC(C)=CCC/C(C)=C/CC/C(C)=C/CC[C@]1(C)CCc2c(C)c(OC(=O)NS(=O)(=O)c3ccc(C)cc3)c(C)c(C)c2O1` [Compound 7, (R)-2,5,7,8-tetramethyl-2-((3E,7E)-4,8,12-trimethyltrideca-3,7,11-trienyl)chroman-6-yl tosylcarbamate], the results for the IC50 in test [1] (setting [6]) and in test [2] (setting [7]) were 6.1 µM and more than 10 µM, respectively. The “antiproliferative activity (in words)” value in test [1] was “activities greater than the natural tocotrienols from which they were derived”.

In the case of `CC(C)=CCC/C(C)=C/CC/C(C)=C/CC[C@]1(C)CCc2c(C)c(OC(=O)NS(=O)(=O)c3ccc(Cl)cc3)c(C)c(C)c2O1` [Compound 10, (R)-2,5,7,8-tetramethyl-2-((3E,7E)-4,8,12-trimethyltrideca-3,7,11-trienyl)chroman-6-yl 4-chlorophenylsulfonylcarbamate], the IC50 in test [1] (setting [6]) was 2.4 µM; in test [2] (setting [7]), more than 10 µM. The “potency relative to parent natural tocotrienol” value in test [1] came out at 8 fold.

For the compound `CC(C)=CCC/C(C)=C/CC/C(C)=C/CC[C@]1(C)CCc2cc(OC(=O)NS(=O)(=O)c3ccc(Cl)cc3)c(C)c(C)c2O1` [Compound 11, (R)-2,7,8-trimethyl-2-((3E,7E)-4,8,12-trimethyltrideca-3,7,11-trienyl)chroman-6-yl 4-chlorophenylsulfonylcarbamate], the IC50 in test [1] (setting [6]) and in test [2] (setting [7]) was more than 10 µM each time.

On to `CC(C)=CCC/C(C)=C/CC/C(C)=C/CC[C@]1(C)CCc2cc(OC(=O)NS(=O)(=O)c3ccc(Cl)cc3)cc(C)c2O1` [Compound 12, (R)-2,8-dimethyl-2-((3E,7E)-4,8,12-trimethyltrideca-3,7,11-trienyl)chroman-6-yl 4-chlorophenylsulfonylcarbamate], for which the concentration for half-maximal inhibition (IC50) in test [1] (setting [6]) and in test [2] (setting [7]) was more than 10 µM each time.

Turning to `CC(C)=CCC/C(C)=C/CC/C(C)=C/CC[C@]1(C)CCc2c(C)c(OC(=O)Nc3ccccc3)c(C)c(C)c2O1` [Compound 13, (R)-2,5,7,8-tetramethyl-2-((3E,7E)-4,8,12-trimethyltrideca-3,7,11-trienyl)chroman-6-yl phenylcarbamate], the IC50 in test [1] (setting [6]) is more than 20 µM; in test [2] (setting [7]), more than 10 µM. Besides, the “antiproliferative activity (in words)” value in test [2] is “improved activities”. The “anti-invasive activity (in words)” value in test [3] was “more active than their natural tocotrienol parent compounds”.

Consider `CC(C)=CCC/C(C)=C/CC/C(C)=C/CC[C@]1(C)CCc2cc(OC(=O)Nc3ccccc3)c(C)c(C)c2O1` [Compound 14, (R)-2,7,8-trimethyl-2-((3E,7E)-4,8,12-trimethyltrideca-3,7,11-trienyl)chroman-6-yl phenylcarbamate], for which the 50% inhibitory concentration (IC50) in test [1] (setting [6]) and in test [2] (setting [7]) was more than 10 µM in each case.

As to `CC(C)=CCC/C(C)=C/CC/C(C)=C/CC[C@]1(C)CCc2cc(OC(=O)Nc3ccccc3)cc(C)c2O1` [Compound 15, (R)-2,8-dimethyl-2-((3E,7E)-4,8,12-trimethyltrideca-3,7,11-trienyl)chroman-6-yl phenylcarbamate], the half-maximal inhibitory concentration (IC50) in test [1] (setting [6]) and in test [2] (setting [7]) was more than 10 µM each time.

Take `CC(C)=CCC/C(C)=C/CC/C(C)=C/CC[C@]1(C)CCc2c(C)c(OC(=O)NCc3ccccc3)c(C)c(C)c2O1` [Compound 16, (R)-2,5,7,8-tetramethyl-2-((3E,7E)-4,8,12-trimethyltrideca-3,7,11-trienyl)chroman-6-yl benzylcarbamate]: the concentration for half-maximal inhibition (IC50) in test [1] (setting [6]) was more than 20 µM; in test [2] (setting [7]) it was 7.2 µM. Moreover, the “antiproliferative activity (in words)” value in test [2] is listed as “improved activities”. Further, in test [3] (5 μM, 24 h), the MDA-MB-231 cells invasion is on record as 8%. Moreover, the “anti-invasive activity (in words)” value in test [3] is recorded as “more active than their natural tocotrienol parent compounds”.

Take `CC(C)=CCC/C(C)=C/CC/C(C)=C/CC[C@]1(C)CCc2cc(OC(=O)NCc3ccccc3)cc(C)c2O1` [Compound 18, (R)-2,8-dimethyl-2-((3E,7E) 4,8,12-trimethyltrideca-3,7,11-trienyl)chroman-6-yl benzylcarbamate]: the IC50 in test [1] (setting [6]) and in test [2] (setting [7]) was more than 10 µM each time.

For the compound `CC(C)=CCC/C(C)=C/CC/C(C)=C/CC[C@]1(C)CCc2c(C)c(OC(=O)NC(=O)c3ccccc3)c(C)c(C)c2O1` [Compound 19, (R)-2,5,7,8-tetramethyl-2-((3E,7E)-4,8,12-trimethyltrideca-3,7,11-trienyl)chroman-6-yl benzoylcarbamate], the IC50 was more than 20 µM in test [1] (setting [6]) and more than 10 µM in test [2] (setting [7]).

Turning to `CC(C)=CCC/C(C)=C/CC/C(C)=C/CC[C@]1(C)CCc2cc(OC(=O)NC(=O)c3ccccc3)c(C)c(C)c2O1` [Compound 20, (R)-2,7,8-trimethyl-2-((3E,7E)-4,8,12-trimethyltrideca-3,7,11-trienyl)chroman-6-yl benzoylcarbamate], in test [1] (setting [6]), the IC50 was more than 10 µM.

As to `CC(C)=CCC/C(C)=C/CC/C(C)=C/CC[C@]1(C)CCc2cc(OC(=O)NC(=O)c3ccccc3)cc(C)c2O1` [Compound 21, (R)-2,8-dimethyl-2-((3E,7E)-4,8,12-trimethyltrideca-3,7,11-trienyl)chroman-6-yl benzoylcarbamate], the concentration for half-maximal inhibition (IC50) in test [1] (setting [6]) came to 5.6 µM.

Source of the values: patent publication US8268786B2, “Anti-cancer tocotrienol analogues and associated methods” (First Tech International Limited, priority 2009, dated 2012).
